From PMC6104465, “Synthesis and in vitro and in vivo evaluation of urea-based PSMA inhibitors with increased lipophilicity” (EJNMMI Research, 2018)
Where two headings read alike, the source gives them in different places.

How the values were obtained:
[1] = molecular target: T1, PSMA (Homo sapiens, UniProt Q04609); assay: competitive binding assay on LNCaP cells (radioligand 125I-IBA); settings: read-out: IC50 (affinity to PSMA)
T1 construct: endogenous in cells; host or cells: LNCaP cells (CLS: 300265)
Experimental: The effect of the lipophilic (aromatic) modifications in the spacer unit of the acetylated PSMA inhibitors 1–9 on the IC50 to PSMA was determined in a competitive binding assay on PSMA-expressing LNCaP cells.
The PSMA affinity was determined as described previously. In brief, 150,000 LNCaP cells were seeded into 24-well plates one day prior to the experiment. […] After removal of the supernatant, the cells were washed once with HBSS and subsequently lysed with 1 n NaOH. Both fractions were quantified in a γ-counter. Using the Graphpad Prism software, binding curves were plotted and IC50 values were extracted. Three independent determinations were performed in triplicate for each compound.

[2] = molecular target: T2, human serum albumin (Homo sapiens, UniProt P02768); assay: human serum albumin binding, HPLC on Chiralpak HSA column; format: in vitro ADME; settings: for bound to HSA: HPLC, Chiralpak HSA column; for Log K HSA: calibration reference substances, logarithmic K from the literature HSA binding, ref [3, 4]
T2 construct: purchased Daicel Chemical Industries, purchased from Chiral Technologies Europe (Illkirch, France) Chiralpak HSA (5 μm, 50 × 3 mm)
Experimental: High in vivo plasma protein binding increases the plasma half-life of the radiopharmaceutical and therefore might offer beneficiary effects on the tracer distribution (higher uptake into target tissue) but can also lead to increased background activity especially at early time points. In general, drugs binding to plasma proteins with high affinity feature moderate to high lipophilicity, in many cases due to halogenated aromatic groups. […] Human albumin binding was determined, applying a modified HPLC method.
Mobile phase A was an ammonium acetate buffer (50 mM, pH 6.9), mobile phase B was 2-propanol, the flow rate was 0.5 mL/min, and equilibration with 0% B for 3 min was followed by a gradient of 0% B to 20% B to the end of each run within 45 min. To check the column performance and to conduct the non-linear regression, the HSA column was calibrated each day with nine reference substances. Afterward, the PSMA inhibitors with unknown HSA binding were measured. The retention times and factors together with correlation curve are found in Additional file 1.
HSA binding experiments were performed as previously described. […] For each run, 10 µL of the solution containing the inhibitor was injected into the RP-HPLC system and the retention time measured. […] Non-linear regression was established with OriginPro 2016G.

[3] = molecular target: T2, human serum albumin; set-up: method as in Valko et. al. or Yamazaki et al. [3, 4]; settings: calibration reference substances; ref Valko et. al. or Yamazaki et al. [3, 4]; cited from earlier work
[4] = molecular target: T1, PSMA; settings: LNCaP cells 150,000 cells/well, 4 °C, 1 h, c(125I-IBA) = 0.2 nM; mean ± SD; ref [17]; read-out: IC50 (affinity to PSMA); cited from earlier work
[5] = LNCaP cells 150,000 cells/well, 4 °C, 1 h, c(125I-IBA) = 0.2 nM, mean ± SD (n = 3)

T1 sequence (Q04609 whole entry): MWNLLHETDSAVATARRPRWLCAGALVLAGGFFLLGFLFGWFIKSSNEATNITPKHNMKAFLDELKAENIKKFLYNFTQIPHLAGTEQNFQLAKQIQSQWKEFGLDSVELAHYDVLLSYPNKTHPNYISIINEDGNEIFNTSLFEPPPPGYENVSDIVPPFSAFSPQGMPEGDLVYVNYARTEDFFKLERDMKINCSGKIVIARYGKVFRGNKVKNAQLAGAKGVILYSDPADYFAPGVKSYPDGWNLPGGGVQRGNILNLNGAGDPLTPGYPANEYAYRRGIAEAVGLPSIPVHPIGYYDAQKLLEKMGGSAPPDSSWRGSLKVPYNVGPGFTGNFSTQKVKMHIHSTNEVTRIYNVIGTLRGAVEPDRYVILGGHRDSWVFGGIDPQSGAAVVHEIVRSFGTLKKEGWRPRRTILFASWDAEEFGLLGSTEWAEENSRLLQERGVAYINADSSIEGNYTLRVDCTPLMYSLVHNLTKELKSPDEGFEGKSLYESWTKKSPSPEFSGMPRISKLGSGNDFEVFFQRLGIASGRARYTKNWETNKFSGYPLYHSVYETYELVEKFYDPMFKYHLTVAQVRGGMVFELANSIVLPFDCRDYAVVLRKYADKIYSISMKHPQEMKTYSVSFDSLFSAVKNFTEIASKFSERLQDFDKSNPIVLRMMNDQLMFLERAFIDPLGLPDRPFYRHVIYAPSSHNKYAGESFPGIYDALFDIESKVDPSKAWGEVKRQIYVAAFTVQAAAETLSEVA
T2 sequence (P02768 25-609): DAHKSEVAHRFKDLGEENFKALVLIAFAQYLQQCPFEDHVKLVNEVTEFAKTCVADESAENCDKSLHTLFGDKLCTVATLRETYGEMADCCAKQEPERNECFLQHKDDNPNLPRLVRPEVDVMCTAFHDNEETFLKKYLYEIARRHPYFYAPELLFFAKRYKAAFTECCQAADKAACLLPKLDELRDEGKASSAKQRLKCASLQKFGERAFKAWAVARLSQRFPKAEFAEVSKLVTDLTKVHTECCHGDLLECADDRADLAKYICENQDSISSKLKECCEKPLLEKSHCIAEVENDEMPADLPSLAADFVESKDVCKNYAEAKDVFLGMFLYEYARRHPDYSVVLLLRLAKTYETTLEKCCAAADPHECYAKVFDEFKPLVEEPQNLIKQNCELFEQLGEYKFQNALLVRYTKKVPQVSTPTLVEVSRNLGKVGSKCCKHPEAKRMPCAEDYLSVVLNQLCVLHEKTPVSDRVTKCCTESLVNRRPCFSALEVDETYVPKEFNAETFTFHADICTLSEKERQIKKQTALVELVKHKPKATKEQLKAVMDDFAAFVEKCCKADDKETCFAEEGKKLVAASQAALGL

## CC(=O)N[C@@H](Cc1ccc(O)cc1)C(=O)N[C@@H](Cc1cc(I)c(O)c(I)c1)C(=O)N[C@@H](CCCCNC(=O)CCCCCCC(=O)NCCCC[C@H](NC(=O)N[C@@H](CCC(=O)O)C(=O)O)C(=O)O)C(=O)O [PSMA inhibitor 8, Ac-Y(3,5-di-I-Y)K(Sub-KuE)]
[1]
  IC50: 3.8 ± 0.6 nM

## ^natLu-DOTAGA-y-2-nal-k(Sub-KuE) [^natLu-10]
[1]; [5]
  IC50: 2.1 ± 0.8 nM
[2]
  bound to HSA: 83%

## ^natLu-DOTAGA-y-2-nal-k((I-f)-Glut-KuE) [^natLu-11]
[1]; [5]
  IC50: 6.1 ± 1.6 nM
[2]
  bound to HSA: 97%

## O=C(O)c1ccccc1 [Benzoic Acid]
[3]
  Lit. HSA% (literature value of human serum albumin binding): 34.27%

## O=C(O)CC[C@H](NC(=O)N[C@@H](CCCCNC(=O)CCCCCCC(=O)NCCCC[C@@H](NC(=O)[C@@H](Cc1ccccc1)NC(=O)[C@@H](Cc1ccc(O)c(I)c1)NC(=O)CCC(C(=O)O)N1CCN(CC(=O)O)CCN(CC(=O)O)CCN(CC(=O)O)CC1)C(=O)O)C(=O)O)C(=O)O (some centres unmarked) [PSMA I&T, DOTAGA-(I-y)fk(Sub-KuE)]
[4]
  IC50: 10.2 ± 3.5 nM

## ^natGa-DOTAGA-(I-y)fk(Sub-KuE) [^natGa-PSMA I&T]
[4]
  IC50: 9.3 ± 3.3 nM

## CC(=O)N[C@@H](Cc1ccc(O)cc1)C(=O)N[C@@H](Cc1c[nH]c2ccccc12)C(=O)N[C@@H](CCCCNC(=O)CCCCCCC(=O)NCCCC[C@H](NC(=O)N[C@@H](CCC(=O)O)C(=O)O)C(=O)O)C(=O)O [PSMA inhibitor 2, Ac-YWK(Sub-KuE)]
[1]
  IC50: 6.8 ± 3.3 nM

## CC(=O)N[C@@H](Cc1ccc(O)cc1)C(=O)N[C@@H](Cc1ccc([N+](=O)[O-])cc1)C(=O)N[C@@H](CCCCNC(=O)CCCCCCC(=O)NCCCC[C@H](NC(=O)N[C@@H](CCC(=O)O)C(=O)O)C(=O)O)C(=O)O [PSMA inhibitor 7, Ac-Y(4-NO2-F)K(Sub-KuE)]
[1]
  IC50: 7.4 ± 0.5 nM

## COc1ccc(Cl)cc1C(=O)NCCc1ccc(S(=O)(=O)NC(=O)NC2CCCCC2)cc1 [Glibenclamide]
[2]
  Log K HSA: 1.69
[3]
  Lit. HSA% (literature value of human serum albumin binding): 99.00%

## CC(=O)N[C@@H](Cc1ccc(O)cc1)C(=O)N[C@@H](Cc1ccc2ccccc2c1)C(=O)N[C@@H](CCCCNC(=O)CCCCCCC(=O)NCCCC[C@H](NC(=O)N[C@@H](CCC(=O)O)C(=O)O)C(=O)O)C(=O)O [PSMA inhibitor 6, Ac-Y-2-Nal-K(Sub-KuE)]
[1]
  IC50: 3.9 ± 1.7 nM

## ^natGa-DOTAGA-y-2-nal-k(Sub-KuE) [^natGa-10]
[1]; [5]
  IC50: 9.8 ± 3.2 nM

## ^natLu-DOTAGA-(I-y)fk(Sub-KuE) [^natLu-PSMA I&T]
[2]
  bound to HSA: 79%
[4]
  IC50: 7.9 ± 2.4 nM

## CCCN(CCC)S(=O)(=O)c1ccc(C(=O)O)cc1 [Probenecid]
[2]
  Log K HSA: 1.20
[3]
  Lit. HSA% (literature value of human serum albumin binding): 95.00%

## ^natGa-DOTAGA-y-2-nal-k((I-f)-Glut-KuE) [^natGa-11]
[1]; [5]
  IC50: 9.3 ± 2.9 nM

## CC(=O)N[C@@H](Cc1ccc(O)cc1)C(=O)N[C@@H](Cc1cccc2ccccc12)C(=O)N[C@@H](CCCCNC(=O)CCCCCCC(=O)NCCCC[C@H](NC(=O)N[C@@H](CCC(=O)O)C(=O)O)C(=O)O)C(=O)O [PSMA inhibitor 5, Ac-Y-1-Nal-K(Sub-KuE)]
[1]
  IC50: 4.3 ± 0.9 nM

## CC(=O)N[C@@H](Cc1ccc(O)cc1)C(=O)N[C@@H](Cc1ccccc1)C(=O)N[C@@H](CCCCNC(=O)CCCCCCC(=O)NCCCC[C@H](NC(=O)N[C@@H](CCC(=O)O)C(=O)O)C(=O)O)C(=O)O [PSMA inhibitor 1, Ac-YFK(Sub-KuE)]
[1]
  IC50: 15 ± 1.3 nM

## O=C(O)CC[C@H](NC(=O)N[C@@H](CCCCNC(=O)CCCCCCC(=O)NCCCC[C@@H](NC(=O)[C@@H](Cc1ccc2ccccc2c1)NC(=O)[C@@H](Cc1ccc(O)cc1)NC(=O)CCC(C(=O)O)N1CCN(CC(=O)O)CCN(CC(=O)O)CCN(CC(=O)O)CC1)C(=O)O)C(=O)O)C(=O)O (some centres unmarked) [PSMA inhibitor 10, DOTAGA-y-2-nal-k(Sub-KuE)]
[1]; [5]
  IC50: 8.5 ± 2.5 nM

## CC(=O)N[C@@H](Cc1ccc(O)cc1)C(=O)N[C@@H](Cc1ccc(-c2ccccc2)cc1)C(=O)N[C@@H](CCCCNC(=O)CCCCCCC(=O)NCCCC[C@H](NC(=O)N[C@@H](CCC(=O)O)C(=O)O)C(=O)O)C(=O)O [PSMA inhibitor 4, Ac-Y-(Biphenyl-A)K(Sub-KuE)]
[1]
  IC50: 139 ± 117 nM

## CC(=O)N[C@@H](Cc1ccc(O)cc1)C(=O)N[C@@H](Cc1ccc(O)c(C)c1)C(=O)N[C@@H](CCCCNC(=O)CCCCCCC(=O)NCCCC[C@H](NC(=O)N[C@@H](CCC(=O)O)C(=O)O)C(=O)O)C(=O)O [PSMA inhibitor 9, Ac-Y(3-CH3-Y)K(Sub-KuE)]
[1]
  IC50: 7.2 ± 0.9 nM

## Oc1ccccc1 [Phenol]
[2]
  Log K HSA: -0.59
[3]
  Lit. HSA% (literature value of human serum albumin binding): 20.69%

## Nc1ccccc1 [Aniline]
[2]
  Log K HSA: -0.79
[3]
  Lit. HSA% (literature value of human serum albumin binding): 14.06%

## O=C(O)CC[C@H](NC(=O)N[C@@H](CCCCNC(=O)[C@@H](Cc1ccc(I)cc1)NC(=O)CCCC(=O)NCCCC[C@@H](NC(=O)[C@@H](Cc1ccc2ccccc2c1)NC(=O)[C@@H](Cc1ccc(O)cc1)NC(=O)CCC(C(=O)O)N1CCN(CC(=O)O)CCN(CC(=O)O)CCN(CC(=O)O)CC1)C(=O)O)C(=O)O)C(=O)O (some centres unmarked) [PSMA inhibitor 11, DOTAGA-y-2-nal-k((I-f)-Glut-KuE)]
[1]; [5]
  IC50: 4.6 ± 0.9 nM
